US9181266B2, “2-piperidin-1-yl-acetamide compounds for use as tankyrase inhibitors” (NOVARTIS AG, priority 2011, dated 2015)
“And” between values parts separate entries of the source, which are not always exact repeats. Equal entries are not always repeated. Where two headings read alike, the source gives them in different places.

Tests used:
Human PARP1 = Human PARP1 (Homo sapiens (Human), UniProt P09874); assay: PARP1 autoparsylation assay (LC/MS detection of nicotinamide); assay type: biochemical; conditions: 20 nM enzyme, 250 μM β-NAD+, 60 min
Chain of Human PARP1 (P09874 whole entry): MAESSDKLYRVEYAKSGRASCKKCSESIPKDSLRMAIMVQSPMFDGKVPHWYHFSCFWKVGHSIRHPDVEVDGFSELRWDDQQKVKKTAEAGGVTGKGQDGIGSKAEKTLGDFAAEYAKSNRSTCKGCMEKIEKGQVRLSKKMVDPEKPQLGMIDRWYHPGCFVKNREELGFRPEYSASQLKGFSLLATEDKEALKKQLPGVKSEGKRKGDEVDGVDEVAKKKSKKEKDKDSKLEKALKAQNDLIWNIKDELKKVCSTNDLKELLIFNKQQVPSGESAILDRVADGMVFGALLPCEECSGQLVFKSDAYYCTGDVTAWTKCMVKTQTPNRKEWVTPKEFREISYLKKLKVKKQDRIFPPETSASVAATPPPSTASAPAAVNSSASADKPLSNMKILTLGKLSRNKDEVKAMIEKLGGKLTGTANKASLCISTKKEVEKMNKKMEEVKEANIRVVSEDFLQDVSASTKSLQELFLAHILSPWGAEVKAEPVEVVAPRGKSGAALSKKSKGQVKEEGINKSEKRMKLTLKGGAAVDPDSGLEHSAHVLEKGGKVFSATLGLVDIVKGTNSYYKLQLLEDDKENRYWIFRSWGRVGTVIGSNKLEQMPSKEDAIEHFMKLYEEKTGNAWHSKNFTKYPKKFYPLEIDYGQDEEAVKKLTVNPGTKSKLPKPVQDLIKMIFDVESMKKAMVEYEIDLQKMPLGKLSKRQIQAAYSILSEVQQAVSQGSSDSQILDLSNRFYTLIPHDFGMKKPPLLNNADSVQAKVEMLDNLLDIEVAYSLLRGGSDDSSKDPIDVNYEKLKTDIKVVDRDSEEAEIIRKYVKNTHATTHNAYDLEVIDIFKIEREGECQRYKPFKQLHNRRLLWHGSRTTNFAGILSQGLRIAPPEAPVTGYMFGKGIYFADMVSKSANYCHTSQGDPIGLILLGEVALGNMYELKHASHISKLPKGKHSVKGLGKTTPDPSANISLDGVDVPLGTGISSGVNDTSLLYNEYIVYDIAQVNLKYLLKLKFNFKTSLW
Procedure: (§1) The autoparsylation activity of the TNKS 1/2 or PARP1/2 enzymes was measured by the liquid chromatography-mass spectrometry (LC/MS) detection of nicotinamide as readout. Compound activity in inhibiting the TNKS and PARP autoparsylation was evaluated by IC50 measurements.

PARP2 = PARP2 (Mus musculus (Mouse), UniProt O88554); assay: PARP2 autoparsylation assay (LC/MS detection of nicotinamide); assay type: biochemical; conditions: 20 nM enzyme, 250 μM β-NAD+, 60 min
Chain of PARP2 (O88554 whole entry): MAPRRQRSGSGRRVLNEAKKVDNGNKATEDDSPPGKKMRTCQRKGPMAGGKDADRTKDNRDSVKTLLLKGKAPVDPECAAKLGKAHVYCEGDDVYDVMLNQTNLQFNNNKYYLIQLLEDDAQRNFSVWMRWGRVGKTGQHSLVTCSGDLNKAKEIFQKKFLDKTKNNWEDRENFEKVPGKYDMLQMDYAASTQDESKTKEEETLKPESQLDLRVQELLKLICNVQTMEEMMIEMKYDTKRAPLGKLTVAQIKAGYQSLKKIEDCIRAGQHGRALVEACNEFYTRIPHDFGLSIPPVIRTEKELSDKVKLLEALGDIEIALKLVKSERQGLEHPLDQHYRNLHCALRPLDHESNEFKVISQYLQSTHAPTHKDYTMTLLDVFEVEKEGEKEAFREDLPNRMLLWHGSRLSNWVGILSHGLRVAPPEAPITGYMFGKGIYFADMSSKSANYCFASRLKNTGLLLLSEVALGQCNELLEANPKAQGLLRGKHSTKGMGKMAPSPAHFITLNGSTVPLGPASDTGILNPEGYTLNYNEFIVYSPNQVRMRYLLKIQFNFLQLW
Procedure: as §1

[1] = tested on: Wnt ligand-induced signaling in HEK293 cells; assay: Wnt-responsive Super-TOpFlash (STF) luciferase reporter gene assay; assay type: cell-based; conditions: Homo sapiens, Wnt3A condition medium
Procedure: Cellular Reporter Gene Assay to Determine Compound Inhibition of Wnt Signaling Activity
Compound activity in inhibiting Wnt ligand-induced signaling was measured using a Wnt-responsive Super-TOpFlash (STF) luciferase reporter gene assay in HEK293 cells. On day 1 of the assay, cells were plated at a density of 8000 cells per well of 384-well plate in 25 μl medium containing 5% fetal bovine serum (FBS). On the second day, […] condition medium (CM) produced from mouse L cells was added to the cells to induce Wnt signaling, followed by addition of 5 μL of compounds each well in 10-point serial dilution. On the third day, the luciferase activity was measured by the Bright-Glo™ Luciferase Assay System following manufacture's protocol (Promega, E2620). The Inhibition was calculated as: (Maximum Wnt-induced signaling−Sample)/(Maximum Wnt-induced signaling−Background)*100. “Maximum Wnt-induced signaling” is the STF signal level induced by 20% Wnt3A CM without compound; and “Background” is the STF signal level without the addition of Wnt3A CM or compound.

[2] = tested on: Axin2 protein in SW480 cells; assay: Cellular ELISA assay of Axin2 protein stabilization; assay type: cell-based; conditions: Homo sapiens, 24 hrs, read-out: Axin AC50
Procedure: Cellular ELISA Assay to Determine Compound Effect on Stabilizing the Axin2 Protein Compound activity in stabilizing the Axin2 protein was measured by Sandwich Enzyme-Linked Immuosorbent (ELISA) assay in the colorectal cell line SW480. 30,000 SW480 cells were seeded per well in 96-well plate and incubated overnight prior to compound treatment. […] Cells were then washed with 100 μL of cold Phosphate Buffer Saline (PBS), and lysed in 125 μl of cold 1× lysis buffer (Cell Signaling Technology, 9803) supplemented with Protease inhibitor (Roche, 11836170) and Phosphatase inhibitors (Sigma, P2850, P5726). For the ELISA assay, anti Axin-2 capture antibody (Strategic Diagnostics) antibody was diluted to a concentration of 1 μg/ml (1:1000) in Carbonate Coating buffer, pH 9.2 (Sigma, C3041-50CAP). […], of the diluted anti Axin-2 capture antibody per well was then used to coat the 96-well ELISA plate (Thermo Electron Corp., MicroLite 1 flat bottom plate #7571) overnight at 4° C. […] After blocking, plates were then washed three times with 300 μl/well of wash solution. 100 μL of prepared SW480 cell lysate was then added to each well and incubated at room temperature for 2 hours while shaking gently. After washing, 100 μL of Biotinylated anti-Axin2 antibody (CST, 2151) was added to each well and incubated room temperature for 2 hours. 100 μL of Streptavidin-HRP (R&D systems, DY998) diluted 1:200 in 1% BSA/PBS was then added in each well and incubate for 30 mins at R/T in the dark.

[3] = target: human tankyrase 1 PARP catalytic domain, TNKS1P (Homo sapiens (Human), UniProt O95271); assay: TNKS1 autoparsylation assay (LC/MS detection of nicotinamide); conditions: read-out: TNKS1 AP IC50, 20 nM enzyme, 250 μM β-NAD+, 60 min
Chain of human tankyrase 1 PARP catalytic domain, TNKS1P (O95271 1112-1317): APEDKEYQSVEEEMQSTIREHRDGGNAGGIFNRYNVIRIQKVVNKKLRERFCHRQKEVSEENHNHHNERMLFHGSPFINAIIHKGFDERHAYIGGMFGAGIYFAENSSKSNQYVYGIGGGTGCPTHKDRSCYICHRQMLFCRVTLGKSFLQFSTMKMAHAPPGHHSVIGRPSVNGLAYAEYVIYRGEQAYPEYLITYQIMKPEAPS
Procedure: (§2) Biochemical Assay to Determine Compound Inhibition of TNKS Enzyme Activity
(§3) The autoparsylation activity of the TNKS 1/2 or PARP1/2 enzymes was measured by the liquid chromatography-mass spectrometry (LC/MS) detection of nicotinamide as readout. Compound activity in inhibiting the TNKS and PARP autoparsylation was evaluated by IC50 measurements. […] For the background control wells, 10 μL of the 5× quenching solution per well was added prior to the addition of β-NAD^+. The % Inhibition was calculated as: (Control−Sample)/(Control−Background)*100.

[4] = target: tankyrase 2 protein PARP domain, TNKS2P (Homo sapiens (Human), UniProt Q9H2K2); assay: TNKS2 autoparsylation assay (LC/MS detection of nicotinamide); conditions: read-out: TNKS2 AP IC50, 20 nM enzyme, 250 μM β-NAD+, 60 min
Chain of tankyrase 2 protein PARP domain, TNKS2P (Q9H2K2 959-1164): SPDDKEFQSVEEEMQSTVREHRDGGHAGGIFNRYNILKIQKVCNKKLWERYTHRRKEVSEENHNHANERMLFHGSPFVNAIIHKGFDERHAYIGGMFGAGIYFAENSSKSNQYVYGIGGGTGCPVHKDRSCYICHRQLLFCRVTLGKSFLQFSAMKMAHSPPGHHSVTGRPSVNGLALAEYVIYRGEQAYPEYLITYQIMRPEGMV
Procedure: as §2, §3

[5] = tested on: Non-small lung cancer ABC-1 cells; assay: Cellular proliferation assay (CellTiter-Glo); assay type: cell-based; conditions: Homo sapiens, read-out: ABC-1 IC50
Procedure: Cellular Proliferation Assay to Determine Compound Inhibition of Cancer Cell Growth
Viable cells were measured after 3 days of compound treatment using the CellTiter-Glo assay (Promega, G7570). Assay was performed following the manufacture protocol.

[6] = 72 h, ABC-1 cells, 3 days of compound treatment

| Structure (SMILES) | IC50 [3] [nM] | IC50 [4] [nM] | IC50 [5, 6] [nM] | IC50 (Human PARP1) | IC50 (PARP2) [nM] | IC50 [1] [nM] | AC50 [2] [nM] | IC50 ([5]; ABC-1, 72 h) [nM] |
| --- | --- | --- | --- | --- | --- | --- | --- | --- |
| C[C@H](c1ccccc1)N(Cc1nc2c(c(=O)[nH]1)COCC2)C(=O)CN1CCC(C(=O)c2ccc(F)cc2)CC1 [Example 4, 2-[4-(4-Fluoro-benzoyl)-piperidin-1-yl]-N-(4-oxo-3,5,7,8-tetrahydro-4H-pyrano[4,3-c]pyrimidin-2-ylmethyl)-N—((R)-1-phenyl-ethyl)-acetamide] | 63 ± 5 | 16 ± 1 |  | > 19000 nM | > 19000 | 59 ± 17 | 363 ± 37 |  |
| COc1ccc(C(=O)C2CCN(CC(=O)N(Cc3nc4c(c(=O)[nH]3)CCCC4)CC3CC3)CC2)cc1 [Example 8, N-(Cyclopropylmethyl)-2-(4-(4-methoxybenzoyl)piperidin-1-yl)-N-((4-oxo-3,4,5,6,7,8-hexahydroquinazolin-2-yl)methyl)acetamide] |  |  |  |  | 9140 ± 210 | 3 ± 1 | 13 ± 3 | 22 |
| COc1ccc(C(=O)C2CCN(CC(=O)NCc3nc4c(c(=O)[nH]3)CCCC4)CC2)cc1 [Example 9, 2-(4-(4-Methoxybenzoyl)piperidin-1-yl)-N-((4-oxo-3,4,5,6,7,8-hexahydroquinazolin-2-yl)methyl)acetamide] |  |  |  |  | 243 ± 66 | 3 ± 3 | 9 ± 2 | 41 |
| O=C(c1ccc(F)cc1)C1CCN(CC(=O)N(Cc2cccc(F)c2)Cc2nc3c(c(=O)[nH]2)COCC3)CC1 [Example 19, 2-(4-(4-Fluorobenzoyl)piperidin-1-yl)-N-(3-fluorobenzyl)-N-((4-oxo-4,5,7,8-tetrahydro-3H-pyrano[4,3-d]pyrimidin-2-yl)methyl)acetamide] | 84 ± 7 | 21 ± 1 |  | > 19000 nM | > 19000 | 92 ± 77 | 779 ± 83 |  |
| C[C@@H](c1ccccc1)N(Cc1nc2c(c(=O)[nH]1)COCC2)C(=O)CN1CCC(C(=O)c2ccc(F)cc2)CC1 [Example 23, 2-[4-(4-Fluoro-benzoyl)-piperidin-1-yl]-N-(4-oxo-3,5,7,8-tetrahydro-4H-pyrano[4,3-d]pyrimidin-2-ylmethyl)-N—((S)-1-phenyl-ethyl)-acetamide] | 209 ± 3 | 50 ± 1 |  | > 19000 nM | > 19000 | 189 ± 76 |  |  |
| CC[C@H](C)CN(Cc1nc2c(c(=O)[nH]1)COCC2)C(=O)CN1CCC(C(=O)c2ccc(F)cc2)CC1 [Example 25, 2-[4-(4-Fluoro-benzoyl)-piperidin-1-yl]-N—((S)-2-methyl-butyl)-N-(4-oxo-3,5,7,8-tetrahydro-4H-pyrano[4,3-d]pyrimidin-2-ylmethyl)-acetamide] | 37 ± 4 | 13 ± 1 |  | > 19000 nM | > 19000 | 30 ± 9 | 179 ± 26 |  |
| C#CCN(Cc1nc2c(c(=O)[nH]1)COCC2)C(=O)CN1CCC(C(=O)c2ccc(F)cc2)CC1 [Example 27, 2-(4-(4-Fluorobenzoyl)piperidin-1-yl)-N-((4-oxo-4,5,7,8-tetrahydro-3H-pyrano[4,3-d]pyrimidin-2-yl)methyl)-N-(prop-2-ynyl)acetamide] | 43 ± 1 | 14 ± 1 |  | > 19000 nM | > 19000 | 53 ± 45 | 3640 ± 660 |  |
| O=C(c1ccc(F)cc1)C1CCN(CC(=O)N(Cc2nc3c(c(=O)[nH]2)COCC3)C[C@@H]2CCCO2)CC1 [Example 28, (S)-2-(4-(4-Fluorobenzoyl)piperidin-1-yl)-N-((4-oxo-4,5,7,8-tetrahydro-3H-pyrano[4,3-d]pyrimidin-2-yl)methyl)-N-((tetrahydrofuran-2-yl)methyl)acetamide] | 24 ± 1 | 10 ± 1 |  | > 19000 nM | > 19000 | 15 ± 4 | 101 ± 19 |  |
| N#CCN(Cc1nc2c(c(=O)[nH]1)COCC2)C(=O)CN1CCC(C(=O)c2ccc(F)cc2)CC1 [Example 43, N-Cyanomethyl-2-[4-(4-fluoro-benzoyl)-piperidin-1-yl]-N-(4-oxo-3,5,7,8-tetrahydro-4H-pyrano[4,3-d]pyrimidin-2-ylmethyl)-acetamide] | > 19000 |  |  | > 19000 nM and 42900 nM |  | 362 |  |  |
| O=C(CN1CCC(c2noc3cc(F)ccc23)CC1)NCc1nc2c(c(=O)[nH]1)COCC2 [Example 51, 2-(4-(6-Fluorobenzo[d]isoxazol-3-yl)piperidin-1-yl)-N-((4-oxo-4,5,7,8-tetrahydro-3H-pyrano[4,3-d]pyrimidin-2-yl)methyl)acetamide] | 207 ± 17 | 43 ± 2 |  | 7630 ± 320 nM | 3090 ± 390 |  |  |  |

Second part, led by results:

| IC50 [3] [nM] | IC50 [4] [nM] | IC50 [5, 6] [nM] | Structure (SMILES) | IC50 (Human PARP1) | IC50 (PARP2) [nM] | IC50 [1] [nM] | AC50 [2] [nM] | IC50 ([5]; ABC-1, 72 h) [nM] |
| --- | --- | --- | --- | --- | --- | --- | --- | --- |
| 222 ± 2 | 39 ± 3 |  | O=C(CN1CCC(n2c(=O)[nH]c3ccccc32)CC1)NCc1nc2c(c(=O)[nH]1)COCC2 [Example 82, 2-(4-(2-Oxo-2,3-dihydro-1H-benzo[d]imidazol-1-yl)piperidin-1-yl)-N-((4-oxo-4,5,7,8-tetrahydro-3H-pyrano[4,3-d]pyrimidin-2-yl)methyl)acetamide] | 32400 ± 4600 nM | 2900 ± 900 | 787 ± 23 |  |  |
| 129 ± 1 | 43 | 346 | O=C(CN1CCC(C(=O)c2ccc3c(c2)OCO3)CC1)NCc1nc2c(c(=O)[nH]1)COCC2 [Example 92, 2-[4-(Benzo[1,3]dioxole-5-carbonyl)-piperidin-1-yl]-N-(4-oxo-3,5,7,8-tetrahydro-4H-pyrano[4,3-c]pyrimidin-2-ylmethyl)-acetamide] |  |  | 9.1 ± 1.2 | 154 ± 25 |  |
| 29 ± 3 | 10.5 ± 0.7 | 16 | COc1ccc(C(=O)C2CCN(CC(=O)NCc3nc4c(c(=O)[nH]3)COCC4)CC2)cc1Cl [Example 94, 2-[4-(3-Chloro-4-methoxy-benzoyl)-piperidin-1-yl]-N-(4-oxo-3,5,7,8-tetrahydro-4H-pyrano[4,3-d]pyrimidin-2-ylmethyl)-acetamide] |  |  | 2.4 ± 0.3 | 11 ± 2 |  |
| 38 ± 3 | 16 ± 5 | 32 ± 5 | CCOc1ccc(C(=O)C2CCN(CC(=O)NCc3nc4c(c(=O)[nH]3)COCC4)CC2)cc1F [Example 95, 2-[4-(4-Ethoxy-3-fluoro-benzoyl)-piperidin-1-yl]-N-(4-oxo-3,5,7,8-tetrahydro-4H-pyrano[4,3-c]pyrimidin-2-ylmethyl)-acetamide] |  |  | 6.6 ± 0.7 | 26 ± 7 |  |
| 328 ± 1 | 133 ± 31 | 65 ± 23 | COc1ccc(C(=O)C2CCN(CC(=O)NCc3cc4c(c(=O)o3)COCC4)CC2)cc1 [Example 96, 2-[4-(4-methoxy-benzoyl)-piperidin-1-yl]-N-(1-oxo-5,8-dihydro-1H,6H-pyrano[3,4-c]pyran-3-ylmethyl)-acetamide] |  |  | 13 ± 3 | 24 ± 8 |  |
| 100 ± 10 | 27 ± 1 |  | COc1ccc(C(=O)C2CCN(CC(=O)NCc3cc4c(c(=O)[nH]3)COCC4)CC2)cc1 [Example 97, 2-[4-(4-Methoxy-benzoyl)-piperidin-1-yl]-N-(8-oxo-3,4,7,8-tetrahydro-1H-pyrano[3,4-c]pyridin-6-ylmethyl)-acetamide] | 7500 ± 400 nM | 1150 ± 9 |  | 266 ± 58 |  |
| 4100 ± 500 | 723 ± 10 | 258 | CC(c1nc2c(c(=O)[nH]1)COCC2)N(C)C(=O)CN1CCC(C(=O)c2ccc(F)cc2)CC1 (stereo not shown) [Example 98, 2-(4-(4-Fluorobenzoyl)piperidin-1-yl)-N-methyl-N-(1-(4-oxo-4,5,7,8-tetrahydro-3H-pyrano[4,3-d]pyrimidin-2-yl)ethyl)acetamide] |  |  | 17 ± 8 | 72 ± 15 |  |
